Data on 6 molecules can be found in patent publication US20250074908A1, “SALT OF ROCK INHIBITOR, CRYSTAL FORM OF SALT, COMPOSITION, AND PHARMACEUTICAL USE” (WUHAN CREATERNA SCIENCE AND TECHNOLOGY CO., LTD., priority 2022, published 2025).

Series [1] can be described thus: Chemical stability on storage up to 3 months (HPLC purity), Table 13-4. The following applies: for stability in chemical properties: 40° C./75% humidity (sealed and protected from light); for Purity (%), 230 nm, Day 13: 40° C./75% humidity, sealed and protected from light. It counts as physicochemical. As to the method: B) The HPLC method used for the stability study was as follows:
The vials were sealed with tin foil and then separately placed under the conditions of 40° C. temperature/75% humidity or 25° C. temperature/60% humidity for about 3 months. The samples after being placed for 0 months, 2 weeks, 1 month and 3 months were taken and each dissolved in a diluent to prepare a solution at about 1.0 mg/mL, which was then tested for chemical stability by HPLC analysis using Shimadzu LC-20ADxr.

Series [2] can be described thus: Solubility in biological media and purified water at 37° C. (tartrate, ethanesulfonate, 2-hydroxyethanesulfonate, sulfate). The series is classed as physicochemical. On the procedure:
(§1) A) The HPLC method used for the solubility test was as follows:
The centrifuge tubes were shaken on a constant temperature incubator shaker (at a temperature of 37° C., with a shaking frequency of 100 times/min).

Series [3] in a line: Solid-state stability test (HPLC purity and XRPD), Table 13-3. It counts as physicochemical. On the procedure: B) The HPLC method used for the stability test was as follows:
The samples after being placed for 0 days, 1 week, 2 weeks and 30 days were taken and each dissolved in a diluent to prepare a solution at about 1.0 mg/mL, which was then tested for chemical stability by HPLC analysis using Agilent HPLC 1260 series. The solid samples after being placed for 2 weeks and 30 days were tested for physical stability by XRPD analysis.

Series [4] in a line: Hygroscopicity test (dynamic vapor sorption, DVS). The following applies: for weight gain (DVS): 25° C.; for hygroscopicity: DVS. The series is classed as physicochemical. On the procedure: The instrument used for dynamic vapor sorption analysis was Vsorp (ProUmid GmbH & Co. KG, Germany). Each sample was subjected to vapor sorption/desorption tests using the Vsorp vapor sorption analyzer (ProUmid GmbH & Co. KG, Germany). The sample was placed in a tared sample tray, and the change in the sample mass with humidity (0-90% RH) at 25° C. was recorded.

Series [5] is described as follows: Solubility in biologically relevant media at 37° C. (free base crystal form I, crystal form III of maleate). The series is classed as physicochemical. The following applies: for pH 24 h: filtrate. As to the method: as §1
15 mg of each sample was weighed and dispersed in 3.0 mL of biologically relevant medium. The dispersion was shaken on a shaker at a rotation speed of 800 rpm at 37° C. 1 mL of the dispersion was taken at 0.5 h, 2 h, and 24 h, and filtered. The filtrate was tested for solubility by Agilent HPLC 1260 series and for pH value by a pH meter. The filter cake was characterized for the crystal form by XRPD.

The nature of series [6]: Pharmacokinetic study in rats. It counts as in vivo, SD rats. As to the method:
Compound I, 2-hydroxyethanesulfonate of compound I, ethanesulfonate (crystal form I) of compound I, tartrate of compound I, and sulfate of compound I were each accurately weighed, and the required volume of vehicle was added. The mixture was stirred for 5 min, then sonicated below 25° C. until no large particles were visible to the naked eye, and further stirred for 30 min until a homogeneous suspension was obtained. The suspension was then used for administration.
Male SPF-grade SD rats (Beijing Vital River Laboratory Animal Technology Co., Ltd.) were given compound I, the 2-hydroxyethanesulfonate of compound I, the ethanesulfonate of compound I (crystal form I), the tartrate of compound I, and the sulfate of compound I by single intragastric administration after an acclimation period (with free access to water and food). Blood was collected from the orbital venous plexus of the rats at 0.167 h, 0.5 h, 1 h, 2 h, 3 h, 4 h, 6 h, 9 h, 12 h, and 24 h after administration. Each blood sample was centrifuged at 3500×g for 10 min at 4° C. The supernatant was then collected, and the concentration of compound I in the plasma was measured by LC-MS/MS (AB Sciex TRIPLE QUAD 3500). The data were analyzed using a non-compartmental model in WinNonlin (version 5.2.1 Pharsight, Mountain View, CA) to obtain PK parameters.

Where [7] appears, read: 60° C./sealed, 60° C./sealed/N2, 40° C./75% RH (open), RT/sealed for 2 weeks.
The mark [8] stands for this setting: filter cake after 24 h in FaSSIF.
The mark [9] stands for this setting: filter cake after 24 h in FeSSIF.
[10] abbreviates: simulated gastric fluid, thermodynamic from solid, SGF, 37° C.
Setting [11] is: male SD rats, single intragastric administration, 10 mg/kg (calculated as compound I), 10 mL/kg, suspension in 0.5% CMC-Na aqueous solution, plasma concentration of compound I.

≈ marks a conversion by molar mass, not a printed value.

`Cn1c(C(=O)N2CC(F)(F)C2)cc2c1CN(c1ncc(F)c(Nc3ccc(-c4cn[nH]c4)cc3)n1)CC2.O=S(=O)(O)CCO`: in series [1], the “stability in chemical properties” value is recorded as “substantially stable”; the “Purity (%), 230 nm, Day 13” value is reported as 98.7%; the “Purity (%), 230 nm, Day 0” value is reported as 98.76%.

With `CCS(=O)(=O)O.Cn1c(C(=O)N2CC(F)(F)C2)cc2c1CN(c1ncc(F)c(Nc3ccc(-c4cn[nH]c4)cc3)n1)CC2` [Crystal form I of ethanesulfonate], in series [2], the “solubility in SGF in the first 4 h” value is on record as “around 100 μg/mL”. The “stability in physical and chemical properties” value in series [3] (40° C./75% RH (open) and 60° C./sealed) is on record as “substantially stable”. Besides, the “Purity (%), 230 nm, 40° C./75% RH (open) Day 30” value in series [3] (40° C./75% RH (open), Day 30) is given as 99.48%. Further, the “Purity (%), 230 nm, 40° C./75% RH (open) Week 2” value (“Purity (%) … (open) Week 2” for short) in series [3] (40° C./75% RH (open)) is 99.49%. Further, the “Purity (%), 230 nm, 60° C./sealed Day 30” value in series [3] (60° C./sealed, Day 30) was 99.49%. The “Purity (%), 230 nm, 60° C./sealed Week 2” value in series [3] (60° C./sealed) is given as 99.50%. The “Purity (%), 230 nm, Day 0” value in series [3] is listed as 99.48%. For the same molecule, in series [4], the “XRPD spectra before and after the DVS test” value is “crystal form remained unchanged”; the hygroscopicity result was “slightly hygroscopic”. In addition, in series [4] (0.0% RH to 80% RH), the “weight gain (DVS)” value was “about 0.3%”. In series [1], the “stability in chemical properties” value was “substantially stable”; the “Purity (%), 230 nm, Day 13” value came to 98.69%; the “Purity (%), 230 nm, Day 0” value is recorded as 98.68%.

As to `Cn1c(C(=O)N2CC(F)(F)C2)cc2c1CN(c1ncc(F)c(Nc3ccc(-c4cn[nH]c4)cc3)n1)CC2.O=C(O)/C=C\C(=O)O` [Crystal form III of maleate], in series [3] (40° C./75% RH (open)), the “Purity (%), 230 nm, 40° C./75% RH (open) Week 1” value was 98.00% and the “Purity (%) … (open) Week 2” value is reported as 97.92%. In addition, the “stability in physical and chemical properties” value in series [3] (setting [7]) is “slight degradation”. For the same molecule, in series [3] (60° C./sealed), the “Purity (%), 230 nm, 60° C./sealed Week 1” value is on record as 97.96% and the “Purity (%), 230 nm, 60° C./sealed Week 2” value is reported as 97.85%. In addition, in series [3], the “Purity (%), 230 nm, 60° C./sealed/N2 Week 1” value worked out at 97.95%; the “Purity (%), 230 nm, 60° C./sealed/N2 Week 2” value is 97.97%; the “Purity (%), 230 nm, Day 0” value was 98.11%; the “Purity (%), 230 nm, RT/sealed Week 2” value is listed as 98.02%. Besides, in series [5] (FaSSIF, 37° C.), the “Solubility 0.5 h” value is 0.14 µg/mL and the “Solubility 24 h” value worked out at 1.11 µg/mL. Besides, in series [5] (FeSSIF, 37° C.), the “Solubility 0.5 h” value came to 0.74 µg/mL, the “Solubility 2 h” value worked out at 2.47 µg/mL and the “Solubility 24 h” value was 3.90 µg/mL. Also, in series [5] (SGF, 37° C.), the “Solubility 2 h” value was 2.18 µg/mL and the “Solubility 24 h” value amounted to 6.45 µg/mL. Further, in series [5] (setting [8]), the “XRPD (24 h)” value was “underwent a crystal form transformation”. For the same molecule, the “XRPD (24 h)” value in series [5] (setting [9]) is recorded as “underwent a crystal form transformation”. Further, in series [5] (filter cake after 24 h in SGF), the “XRPD (24 h)” value is given as “underwent a crystal form transformation”. Also, the “pH 24 h” value in series [5] (FaSSIF) turned out to be 5.33. Besides, the “pH 24 h” value in series [5] (FeSSIF) worked out at 4.90. For the same molecule, the “pH 24 h” value in series [5] (SGF) worked out at 1.29. Further, in series [4], the “XRPD spectra before and after the DVS test” value is on record as “crystal form remained unchanged”; the hygroscopicity result is reported as “slightly hygroscopic”. In series [4] (0.0% RH to 80% RH), the “weight gain (DVS)” value was 0.29%. In addition, the “weight gain (DVS)” value in series [4] (0.0% RH to 90% RH) was 0.37%.

As a reminder, the solubility is the concentration that dissolves in the medium under given conditions. Consider `Cn1c(C(=O)N2CC(F)(F)C2)cc2c1CN(c1ncc(F)c(Nc3ccc(-c4cn[nH]c4)cc3)n1)CC2` [Free base crystal form I], for which, in series [3] (40° C./75% RH (open)), the “Purity (%), 230 nm, 40° C./75% RH (open) Week 1” value was 97.82%. Moreover, the “Purity (%) … (open) Week 2” value in series [3] (40° C./75% RH (open)) worked out at 97.88%. For the same molecule, the “stability in physical and chemical properties” value in series [3] (setting [7]) was “substantially stable”. Moreover, in series [3] (60° C./sealed), the “Purity (%), 230 nm, 60° C./sealed Week 1” value is on record as 97.82%. Also, the “Purity (%), 230 nm, 60° C./sealed Week 2” value in series [3] (60° C./sealed) came out at 97.85%. In addition, the “Purity (%), 230 nm, 60° C./sealed/N2 Week 1” value in series [3] was found to be 97.83%. Also, the “Purity (%), 230 nm, 60° C./sealed/N2 Week 2” value in series [3] was determined as 97.84%. In addition, the “Purity (%), 230 nm, Day 0” value in series [3] was found to be 97.90%. In series [3], the “Purity (%), 230 nm, RT/sealed Week 2” value is 97.93%. Moreover, the solubility in series [5] (fassgf or other biorelevant, thermodynamic from solid, SGF, FaSSIF and FeSSIF, 37° C., read-out: solubility in the three biologically relevant media) is under 50 µg/mL. Also, the “XRPD (24 h)” value in series [5] (setting [8]) is reported as “remained unchanged”; in series [5] (setting [9]), “remained unchanged”; in series [5] (filter cake after 24 h in SGF), “underwent a crystal form transformation”. The “pH 24 h” value in series [5] (FaSSIF) is reported as 6.53; in series [5] (FeSSIF), 5.02; in series [5] (SGF), 1.30. Also, the solubility at 24 h in series [5] (pH 1.3, simulated gastric fluid, thermodynamic from solid, SGF, 37° C.) is 8.57 µg/mL (≈ 16.9 µM); in series [5] (pH 5.02, thermodynamic from solid, FeSSIF, 37° C.), 3.35 µg/mL (≈ 6.59 µM); in series [5] (pH 6.53, thermodynamic from solid, FaSSIF, 37° C.), 0.39 µg/mL (≈ 0.767 µM). In addition, the solubility at 0.5 h in series [5] (setting [10]) is 11.5 µg/mL (≈ 22.6 µM); in series [5] (thermodynamic from solid, FaSSIF, 37° C.), 0.29 µg/mL (≈ 0.57 µM). The solubility at 2 h is 6.69 µg/mL (≈ 13.2 µM) in series [5] (setting [10]) and 1.79 µg/mL (≈ 3.52 µM) in series [5] (thermodynamic from solid, FeSSIF, 37° C.). The “XRPD spectra before and after the DVS test” value in series [4] is given as “crystal form remained unchanged”. The “weight gain (DVS)” value in series [4] (0.0% RH to 80% RH) amounted to 0.30%; in series [4] (0.0% RH to 90% RH), 0.46%. For the same molecule, the hygroscopicity entry in series [4] is listed as “slightly hygroscopic”.

One may read the Cmax as the highest concentration seen after dosing. In the case of `O=S(=O)(O)CCO` [Sample 2-Hydroxyethanesulfonate, 2-Hydroxyethanesulfonate], in series [6] (setting [11]), the AUClast is 9449 ng·h/mL and the Cmax is 827 ng/mL.

`O=S(=O)(O)O` [Sulfate] yielded an AUClast in series [6] (rat, in vivo, po, 10 mg/kg) of 13429 ng·h/mL.
